Data set [1] is described as follows: method code SF-GLC, from DOI: 10.1021/je970020p.
Data set [2] can be described thus: method code SF-HPLC, from DOI: 10.1016/j.jchromb.2013.02.012, PMID: 23500352. Conditions: pH 4.4.
The nature of data set [3]: method code HPLC, from DOI: 10.1016/j.bmcl.2004.01.062, PMID: 15026043. The note with it: pH 5.5.
Data set [4] is described as follows: method code SF-GLC, from DOI: 10.1016/0043-1354(83)90068-4.
Data set [5] in a line: method code SF, from DOI: 10.1016/0378-5173(85)90077-8.
A short description of data set [6]: method code SF-FL, from DOI: 10.1016/0006-2952(96)00248-1, PMID: 8687500.
A short description of data set [7]: method code SF-AS, from DOI: 10.1002/qua.560100722.
The nature of data set [8]: method code SF-HPLC, from DOI: 10.1021/jm00169a024, PMID: 2194033. Conditions: pH 7.4.
Assay in data set [9]: not given
The source holds these as a separate data set.

Assay in data set [10]: not given
The source holds these as a separate data set.

Assay in data set [11]: not given
This is another data set of the same source.

The nature of data set [12]: method code SF-AS, from PMID: 640322. The note with it: pH 4.0.
Assay in data set [13]: not given
The source holds these as a separate data set.

A short description of data set [14]: method code SF, from DOI: 10.1016/0006-2952(91)90449-f, PMID: 1930261. Conditions: pH 2.0.
Data set [15] is described as follows: method code SF-HPLC, from DOI: 10.1016/j.bmcl.2004.01.062, PMID: 15026043. Conditions: pH 5.5.
A short description of data set [16]: method code SF, from DOI: 10.1093/jnci/60.2.345, PMID: 621753.
Assay in data set [17]: not given
This is another data set of the same source.

Assay in data set [18]: not given
This is another data set of the same source.

Data set [19] is described as follows: method code SF-AS, from DOI: 10.1016/0006-2952(90)90117-4, PMID: 2344368. Conditions: pH 7.5.
Data set [20] in a line: method code SF-GLC, from Park, Y.; Park, S. (2000). Determination and prediction of octanol/water partition coefficients and air-water partition coefficients for environmental toxic chemicals. 11(7)773-779.
Data set [21] is described as follows: method code HPLC, from DOI: 10.1016/j.ejmech.2015.05.022, PMID: 26005028. The note with it: pH 7.1.
Data set [22] is described as follows: method code SF-GLC, from DOI: 10.1021/jm00240a002, PMID: 1151965.
Assay in data set [23]: not given
The source holds these as a separate data set.

Assay in data set [24]: not given
This is another data set of the same source.

Data set [25] can be described thus: method code SF-RC, from DOI: 10.1002/ps.2780190203.

`Clc1cc(Cl)c(Cl)c(Cl)c1Cl` registered a logP in data set [1] of 5.2.

For `CS(=O)(=O)OC[C@H](O)[C@@H]1CO1`, the logD in [2] was -1.18.

`CN(C)C(=O)Oc1ccc(CC(NC(=O)C2N(S(=O)(=O)c3cnn(C)c3)CSC2(C)C)C(=O)OCOC(=O)C(C)(C)C)cc1` (stereo not drawn): the logD in [3] came out at 3.14.

The molecule `BrC=C(Br)Br` had a logP in data set [4] of 3.2.

In the case of `CCCCCCCC(=O)OCC(=O)[C@@]1(O)CC[C@H]2[C@@H]3CCC4=CC(=O)CC[C@]4(C)[C@H]3[C@@H](O)C[C@@]21C`, the logP in [5] amounted to 4.37.

`COc1cccc2c1C(=O)c1c(O)c3c(c(O)c1C2=O)C[C@@](O)(C(C)=O)C[C@@H]3O[C@H]1C[C@H](NC(=O)OCc2ccc(NC(=O)[C@@H]3O[C@H](C(=O)O)[C@@H](O)[C@H](O)[C@H]3O)cc2)[C@H](O)[C@H](C)O1` came in with a logP in data set [6] of -1.7.

`COc1cccc2c1C(=O)c1c(O)c3c(c(O)c1C2=O)CC(O)(C(C)=O)CC3OC1CC(NC(=O)CN)C(O)C(C)O1` (stereo not drawn) returned a log distribution coefficient (logD) in [7] (pH 7.8) of 0.64.

On to `COc1cccc2c1C(=O)c1c(O)c3c(c(O)c1C2=O)CC(O)(C(C)=O)CC3OC1CC(NC(=O)CN(C)C)C(O)C(C)O1` (stereo not drawn), for which, in data set [7] (pH 7.8), the logD was 1.26.

Molecule `Clc1cc(Cl)cc(Cl)c1` showed a lipophilicity (logP) in data set [1] of 4.09.

In data set [3], `CCOC(=O)C(Cc1ccc(OC(=O)N(C)C)cc1)NC(=O)C1N(S(=O)(=O)c2cnn(C)c2)CSC1(C)C` (stereo not drawn) yielded a logD of 2.14.

`CCCCCC(C)=O`: the lipophilicity (logP) stood at 2.08.

In the case of `CCN1CC(C(O)C(CC2CCCCC2)NC(=O)C(Cc2cnc[nH]2)NC(=O)N(Cc2ccc(OC)cc2)C(=O)N(C)CCOCOC)OC1=O` (stereo not drawn), the pH-dependent lipophilicity (logD) in data set [8] stood at 2.3.

As for `CCCCCC(=O)OCC(=O)[C@@]1(O)CC[C@H]2[C@@H]3CCC4=CC(=O)CC[C@]4(C)[C@H]3[C@@H](O)C[C@@]21C`, the logP in data set [5] is 3.7.

For the molecule `C=CC(=O)OCC(C)(C)C`, the lipophilicity (logP) in data set [9] came to 2.32.

In data set [10], `Oc1cccc(Br)c1Br` returned a logP of 3.37.

`Cc1cc(C(=O)N2Cc3ccc(C(=O)N(CCO)CCF)n3Cc3ccccc32)ccc1-c1ccccc1C(F)(F)F` registered a logP in data set [11] of 4.89.

`CCCCN(N=O)C(N)=O` registered a pH-dependent lipophilicity (logD) in data set [12] of 1.04.

With `COc1ccc(CC2C(=O)NC(C)C(=O)N(C)C3Cc4ccc(cc4)Oc4cc(ccc4O)CC(C(=O)NC(C)C(=O)NC(C)C(=O)N2C)N(C)C3=O)cc1` (stereo not drawn), in data set [13], the logP was 2.72.

`CCCOC(C)=O` displayed a logP of 1.11.

Take `O=C1NC(=O)C(O)C(=O)N1`: the logD in [14] was -1.85.

For the molecule `Cc1cc(C(=O)N2Cc3ccc(C(=O)N(CCO)CCO)n3Cc3ccccc32)ccc1-c1ccccc1CCF`, in data set [11], the logP is 3.14.

In [15], `CN(C)C(=O)Oc1ccc(CC(C(=O)OCC(C)(C)C)C(=O)C2N(S(=O)(=O)c3cnn(C)c3)CSC2(C)C)cc1` (stereo not drawn) had a log distribution coefficient (logD) of 3.42.

As for `O=NN(CCCl)C(=O)N1CCCC1`, in data set [16], the logP was 0.9.

On to `COc1ccc(CC2C(=O)NC(C)C(=O)N(C)C3Cc4ccc(cc4)Oc4cc(ccc4OC(C)=O)CC(C(=O)NC(C)C(=O)NC(C)C(=O)N2C)N(C)C3=O)cc1` (stereo not drawn), for which the logP in [13] was 3.19.

`O=c1[nH]cnc2c1ncn2[C@@H]1O[C@H](CO)[C@@H](O)[C@H]1O`: in data set [17], the log partition coefficient (logP) is -1.81.

In data set [18], `CC(C)CC(=O)NC(N)=O` showed a log partition coefficient (logP) of 0.45.

In turn, `COc1cccc2c1C(=O)c1c(O)c3c(c(O)c1C2=O)CC(O)(C(C)=O)CC3OC1CC(O)C(O)C(C)O1` (stereo not drawn) registered a logD in data set [19] of 1.34.

As to `COc1ccc(CC2C(=O)NC(C)C(=O)N(C)C3Cc4ccc(cc4)Oc4cc(ccc4OC)CC(C(=O)NC(C)C(=O)NC(C)C(=O)N2C)N(C)C3=O)cc1` (stereo not drawn), in data set [13], the log partition coefficient (logP) amounted to 3.17.

Regarding `CC(=O)CC(C)C`, in data set [20], the logP was 1.4.

Take `COc1cccc2c1C(=O)c1c(O)c3c(c(O)c1C2=O)C[C@@](O)(C(C)=O)C[C@@H]3O[C@@H]1C[C@@H](N(C)C)[C@@H](O)[C@@H](C)O1`: in [19], the pH-dependent lipophilicity (logD) amounted to 1.37.

Molecule `BrC1CCCCC1` displayed a logP in data set [4] of 3.2.

`Nc1ncnc2nn[nH]c12` gave a lipophilicity (logP) in [17] of -0.96.

`Cc1cc(C(=O)N2Cc3ccc(C(=O)N(C)CCF)n3Cc3ccccc32)ccc1-c1ccccc1C(F)(F)F` registered a log partition coefficient (logP) in [11] of 5.2.

In [18], `CC(C)C(=O)NC(N)=O` gave a logP of 0.04.

The molecule `C=CC(=O)OC` came in with a logP in data set [9] of 0.74.

`CC(=O)OC[C@H]1O[C@@H](OC(C)=O)[C@H](NC(=O)CBr)[C@@H](OC(C)=O)[C@@H]1OC(C)=O`: the log distribution coefficient (logD) in [21] was found to be 0.23.

`CS(=O)(=O)OC[C@H](O)[C@@H](O)COS(C)(=O)=O` displayed a log distribution coefficient (logD) in data set [2] of -1.58.

Turning to `CCN1C[C@H]([C@@H](O)[C@H](CC2CCCCC2)NC(=O)[C@@H](Cc2cnc[nH]2)NC(=O)[C@@H](Cc2ccc(OC)cc2)NC(=O)N(C)CCOCOCCOC)OC1=O`, in data set [8], the logD was determined as 2.03.

For the molecule `COc1cccc2c1C(=O)c1c(O)c3c(c(O)c1C2=O)C[C@@](O)(C(C)=O)C[C@@H]3O[C@H]1C[C@H](NC(=O)CCCNC(=O)[C@@H]2O[C@H](C(=O)O)[C@@H](O)[C@H](O)[C@H]2O)[C@H](O)[C@H](C)O1`, the logP in data set [6] is -2.

Molecule `CCN1CC(C(O)C(CC2CCCCC2)NC(=O)[C@H](Cc2cnc[nH]2)NC(=O)[C@H](Cc2ccc(OC)cc2)NC(=O)N(C)CC(O)CO)OC1=O` (stereo partly drawn) displayed a pH-dependent lipophilicity (logD) in data set [8] of 1.42.

In the case of `Oc1c(F)c(F)c(F)c(F)c1F`, the logP in data set [10] turned out to be 2.96.

On to `COc1cccc2c1C(=O)c1c(O)c3c(c(O)c1C2=O)C[C@@](O)(C(C)=NNC(=O)c1ccccc1)C[C@@H]3O[C@H]1C[C@H](N)[C@H](O)[C@H](C)O1`, for which, in [7] (pH 8.8), the logD stood at 0.76.

In data set [14], `O=C1NC(=O)C(=O)C(=O)N1` yielded a pH-dependent lipophilicity (logD) of -1.86.

Turning to `COCCOCCOC(=O)C(Cc1ccc(OC(=O)N(C)C)cc1)NC(=O)C1N(S(=O)(=O)c2cnn(C)c2)CSC1(C)C` (stereo not drawn), the pH-dependent lipophilicity (logD) in data set [15] was determined as 1.41.

With `FC(F)OC(F)(F)C(F)Cl` (stereo not drawn), the lipophilicity (logP) in data set [22] was determined as 2.1.

The molecule `O=NN(CCCl)C(=O)NCCO` returned a lipophilicity (logP) in data set [16] of 0.3.

The molecule `c1ccnnc1` registered a logP in data set [23] of -0.15.

In turn, `OCCBr` had a logP in data set [24] of 0.29.

In the case of `O=c1ccc(O)n[nH]1`, the logP in [25] was -0.63.

In the case of `C1CCOC1`, the log partition coefficient (logP) in data set [20] was 0.5.

The molecule `NC(=O)N(CCCCCCN(N=O)C(N)=O)N=O` came in with a logD in [12] of 0.58.

In data set [6], `COc1cccc2c1C(=O)c1c(O)c3c(c(O)c1C2=O)C[C@@](O)(C(C)=O)C[C@@H]3O[C@H]1C[C@H](NC(=O)Cc2ccccc2NC(=O)[C@@H]2O[C@H](C(=O)O)[C@@H](O)[C@H](O)[C@H]2O)[C@H](O)[C@H](C)O1` came in with a log partition coefficient (logP) of -1.1.

For the molecule `CC(C)(C)CO`, in data set [24], the logP turned out to be 1.29.

`CCCNC(=O)CBr` had a log distribution coefficient (logD) in data set [21] of 0.91.

In turn, `CCOCC` returned a log partition coefficient (logP) in [22] of 0.89.

`COc1ccnnc1` came in with a lipophilicity (logP) in data set [23] of 0.24.

As for `CCCCCC(=O)OCC(=O)[C@@]1(O)CC[C@H]2[C@@H]3CCC4=CC(=O)CC[C@]4(C)[C@H]3C(=O)C[C@@]21C`, the logP in [5] is 3.3.

For the molecule `Cc1cc(OCC(=O)O)ccc1S(C)(=O)=O`, in [25], the lipophilicity (logP) was 0.54.
